Experimental data from PMC12080252, “Daphnia magna as an Alternative Model for (Simultaneous) Bioaccumulation and Chronic Toxicity Assessment—Controlled Exposure Study Indicates High Hazard of Heterocyclic PAHs” (Environmental Science & Technology, 2025).
Where “and” joins values, the source holds several entries; their conditions need not be identical. Identical values can stand only once.

Columns and labels:
[1] = system: D. magna; assay: PNEC and risk quotient estimation; design: species or system Daphnia magna; details: environmental concentration of surrogate (CRB, DBF, DBT) / PNEC
Description: To ensure a precautionary approach, an AF of 100 was applied, which accounts for interspecies variability and uncertainties in extrapolating laboratory findings to real-world conditions.
Environmental concentration (EC) data are obtained from A CRB, B DBF, and C DBT by choosing the highest
concentration that remains below the solubility limit of the respective NSO-PAH, as described in Reference 24.

[2] = cited from earlier work
[3] = system: Daphnia magna; assay: Chronic reproduction toxicity test (OECD 211) with passive dosing; type: in vivo; details: for Total #dead offspring per mother (per vessel) / Total #offspring per mother (per vessel) / % inhibition (per vessel): individual vessels; for EC10: 21-day reproduction inhibition; for wet weight of parent daphnids, change relative to control: end of 21-d exposure; for % inhibition, avr. / % inhibition (per vessel): reproduction vs controls
Procedure, shortened: (§1)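 D. magna juveniles (<24 h) exposed individually 21 days by passive dosing from PDMS disks, static, 20 °C, 16:8 h light/dark, medium renewed three times weekly, fed daily; water concentrations measured initially and before renewal. Offspring per mother versus controls gave percent inhibition; EC10/EC20/EC50 from four-parameter logistic fit of log10 concentrations (Top 100, Bottom 0).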

[4] = as above; type: in vivo, Daphnia magna; details: Daphnia magna, in vivo, other: waterborne exposure by passive dosing from PDMS disks, 21-day test, read-out: % offspring mortality of total offspring
Procedure, shortened: as §1

c1ccc2c(c1)ccc1sc3ccccc3c12 [BNT, benzo[b]naphtho[1,2-d]thiophene]
RQ (EC/PNEC) [1]: 3333 | SW (water solubility) ([2]; measured in previous work): 0.026 µg/mL | log KOW ([2]; n-octanol-water partition coefficient): 5.75 | log KOC ([2]; organic carbon-water partition coefficient): 5.50 | #average live offspring ([3]; 0.07 µg/L, 21 days): 67 | %offspring mortality ([3]; 0.07 µg/L, 21 days): 1.76% | #total live offspring ([3]; 0.07 µg/L, 21 days, all vessels without outlier): 334 | Total #dead offspring per mother (per vessel) ([3]; 0.07 µg/L, 21 days): 0 and 2 | #average live offspring ([3]; 0.25 µg/L, 21 days): 67 | %offspring mortality ([3]; 0.25 µg/L, 21 days): 11.09% | #total live offspring ([3]; 0.25 µg/L, 21 days, all vessels): 401 | Total #dead offspring per mother (per vessel) ([3]; 0.25 µg/L, 21 days): 8 and 14 and 9 and 6 and 5 | #average live offspring ([3]; 0.38 µg/L, 21 days): 62 | %offspring mortality ([3]; 0.38 µg/L, 21 days): 11.71% | #total live offspring ([3]; 0.38 µg/L, 21 days, all vessels without vessel 2 (X)): 309 | Total #dead offspring per mother (per vessel) ([3]; 0.38 µg/L, 21 days): 9 and 16 and 10 and 5 and 1 | #average live offspring ([3]; 0.81 µg/L, 21 days): 52 | %offspring mortality ([3]; 0.81 µg/L, 21 days): 14.75% | #total live offspring ([3]; 0.81 µg/L, 21 days, all vessels): 312 | Total #dead offspring per mother (per vessel) ([3]; 0.81 µg/L, 21 days): 10 and 9 and 3 and 24 and 5 | EC10 ([3]; 97.5-2.5% confidence interval in brackets): 0.33 (0.12-0.73) μg L^-1 | EC10 ([3]; confidence interval in brackets): 1.40 (0.49-3.10) nmol L^-1 | growth of parent D. magna (wet weight) ([3]; 21-day test, p-value <0.05): significantly inhibited D. magna growth | LOEC (lowest observed effect concentration, reproduction inhibition) ([3]; 21 days, p-value <0.05 vs controls): 0.8 μg L^–1 | Total #offspring per mother (per vessel) ([3]; BNT avr. medium concentration 0.25 µg/L (methanol dosing 0.063 g/L), 21 days): 81 and 73 and 58 and 64 and 61 | Total #offspring per mother (per vessel) ([3]; BNT avr. medium concentration 0.38 µg/L (methanol dosing 0.125 g/L), 21 days): 66 and 55 and 82 and 54 and 52 | Total #offspring per mother (per vessel) ([3]; BNT avr. medium concentration 0.81 µg/L (methanol dosing 0.25 g/L), 21 days): 40 and 59 and 60 and 34 and 57 and 62 | EA50 (effective chemical activity) ([3]; EC50/subcooled liquid solubility, eq 1): 0.026 unitless | Classification according to REACH Annex XIII ([3]; chronic EC10 < 10 μg L^–1): toxic to aquatic life | CTLBB (critical target lipid body burden) ([3]; derived from chronic EC10 using eq 3): 0.8 μmol g^-1 octanol | wet weight of parent daphnids, change relative to control ([3]; 0.07 µg/L (Fig. S9)): -11% | wet weight of parent daphnids, change relative to control ([3]; 0.25 µg/L (Fig. S9)): -19% | wet weight of parent daphnids, change relative to control ([3]; 0.38 µg/L (Fig. S9)): -17% | wet weight of parent daphnids, change relative to control ([3]; 0.81 µg/L (Fig. S9)): -3% | wet weight of parent daphnids, change relative to control ([3]; 1.94 µg/L (Fig. S9)): +13% | wet weight of parent daphnids, change relative to control ([3]; 4.63 µg/L (Fig. S9)): -24% | % inhibition, avr. ([3]; 0.07 µg/L, 21 days): 1.3% | % inhibition (per vessel) ([3]; 0.07 µg/L, 21 days): -3.4% and -4.9% and -1.9% and 15.8% and 1.0% | % inhibition, avr. ([3]; 0.25 µg/L, 21 days): 1.3% | % inhibition (per vessel) ([3]; 0.25 µg/L, 21 days): -19.6% and -7.8% and 14.3% and 5.5% and 9.9% | % inhibition, avr. ([3]; 0.38 µg/L, 21 days): 8.7% | % inhibition (per vessel) ([3]; 0.38 µg/L, 21 days): 2.5% and 18.8% and -21.1% and 20.2% and 23.2% | % inhibition, avr. ([3]; 0.81 µg/L, 21 days): 23.2% | % inhibition (per vessel) ([3]; 0.81 µg/L, 21 days): 40.9% and 12.9% and 11.4% and 49.8% and 15.8% and 8.4% | mortality at 21 days, 0.07 µg/L ([4]; 0.07 µg/L (Fig. S8)): 1.8% | mortality at 21 days, 0.25 µg/L ([4]; 0.25 µg/L (Fig. S8)): 11.1% | mortality at 21 days, 0.38 µg/L ([4]; 0.38 µg/L (Fig. S8)): 11.7% | mortality at 21 days, 0.81 µg/L ([4]; 0.81 µg/L (Fig. S8)): 14.8% | mortality at 21 days, 1.94 µg/L ([4]; 1.94 µg/L (Fig. S8)): 14.2% | mortality at 21 days, 4.63 µg/L ([4]; 4.63 µg/L (Fig. S8)): 20.8% | mortality at 21 days, 12 µg/L ([4]; 12.00 µg/L (Fig. S8)): 28%
